PMC5974751, “NKp44-Derived Peptide Binds Proliferating Cell Nuclear Antigen and Mediates Tumor Cell Death” (Frontiers in Immunology, 2018)

Tests used:
NKp44–PCNA interaction = experiment: ELISA blocking of NKp44-hFc interaction with PCNA; assay type: binding; conditions: peptide 0–10 µM, NKp44-hFc 80 nM, anti-human IgG-HRP, O.D. 650 nm, negative control pep5
Procedure: To determine the ability of NKp44-pep8 to block NKp44-hFc interaction with PCNA, ELISA plates were coated overnight at 4°C with 2 µg/ml of the recombinant PCNA, blocking buffer (PBS + 2.5% skim milk) was applied for 2 h at room temperature, after which the plates were incubated with 0–10 µM of biotinylated NKp44-derived peptides or PBS 1× (100 μl/well, background control) for 2 h at room temperature and then NKp44-hFc (80 nM, 20 µl/well) was added without washing for 1 h at room temperature. NKp44-hFc binding to PCNA was detected using HRP conjugated to antihuman IgG (1 h at 1:400 dilution 100 μl/well). Following washing, TMB (100 μl/well DAKO, S1599) was added. O.D. was read at 650 nm (Thermo Electron Corporation Multiskan Spectrum). Between each step, wells were washed three times with 200 μl/well PBS 1× containing 0.05% Tween 20 (PBST).

[1] = test system: recombinant human PCNA (hPCNA); experiment: ELISA binding of biotinylated NKp44-derived peptides to plate-bound recombinant PCNA; conditions: biotinylated peptide, 0–7.24 µM (Figure 1A), streptavidin-HRP, TMB, O.D. 650 nm
Procedure: The pET-28 or pMAL-c2x vectors were used to produce soluble human PCNA (hPCNA) in Rosetta™ 2 (DE3) cells. Plasmids containing the mRNA sequence of PCNA or TL1A, APO-E3, HNF4 were transformed into Rosetta™ 2 cells via heat shock and grown on LB agar plates with kanamycin and chloramphenicol. A fresh colony of transformed bacteria was grown overnight in a 5 ml of LB with kanamycin and chloramphenicol an incubator shaker set to 37°C and at 250 rpm. The next day, bacteria cells were diluted 1:100 into a 500 ml of LB with kanamycin and chloramphenicol (to discard dead cells) and grown to an optical density (O.D.) of 0.6–0.8 (λ = 650 nm). Isopropyl β-D-1-thiogalactopyranoside (0.5 mM) was added for the induction of the PCNA production, and cells were further incubated for 4 h at 26°C (hPCNA). Cells were then centrifuged and the pellet was resuspended with solution A (20 mM Tris–HCl pH 8.0, 0.5 M NaCl, 20 mM imidazole), sonicated six times (20 s with 40 s intervals) and sieved through […] (Sartorius Stedim Biotech) filter before loaded on a His-tag or Amylose resin beads. Purification of His-tagged proteins was done using a Gravity-flow Column with “HisPur™ Ni-NTA Resin” Bead kit (Thermo-Scientific) (binding capacity ≤ 60 mg of a 28 kDa 6xHis-tagged protein from a bacterial source per milliliter of settled resin) according to Kits Protocol. Purification of MBP-tagged proteins was done using the Amylose resin beads (Catalog # E8035S).
To determine the interaction between NKp44-derived peptides and PCNA, ELISA plates were coated overnight at 4°C with 2 µg/ml of the recombinant PCNA or TLA1 ([49]), APO-E3 ([50]), HNF4 ([4]), rhFc, rhNKp44-hFc ([12]), rhNKp46-hFc ([51]), and PBS 1× (negative controls). Blocking buffer (PBS + 2.5% skim milk) was applied for 2 h at room temperature, after that the plates were incubated with 0–8 µM of biotinylated NKp44-derived peptides or PBS 1× (background control) for 2 h at room temperature. NKp44-derived peptides binding to PCNA was detected using horseradish peroxidase (HRP)-conjugated to streptavidin (1 h at 1:500 dilution). Following washing, TMB (DAKO, S1599) was added. O.D. was read at 650 nm (Thermo Electron Corporation Multiskan Spectrum). Between each step, wells were washed three times with PBS containing 0.05% Tween 20 (PBST).

[2] = test system: NK92-44-1 cells (NK92 overexpressing NKp44-1 splice variant); experiment: IFNγ secretion assay of NK92-44-1 cells co-incubated with PANC-1 cells; assay type: cell-based, human; conditions: NK92-44-1 with HLA-I positive PANC-1, E:T 1:2; peptide 10 or 20 µg/well
Procedure: IFNγ secretion assay and ELISA assay were done as previously described ([11], [12]). NKp44-pep8, pep9, and pep10 (10 or 20 µg) were added to the IFNγ secretion assay.
Figure 1 Recognition of recombinant human PCNA (hPCNA) by NKp44-derived pep8 (NKp44-pep8). (A) ELISA assay representing the binding curve of biotinylated NKp44-derived pep5, pep8, and pep10 at a peptide concentration range of 0–7.24 µM to plate bond hPCNA. (B) IFNγ secretion assay of NK92-44-1 cells co-incubate with the HLA positive cell line PANC-1 (E:T ration of 1:2) in the presence of NKp44-pep8 (10 or 20 μg/well), NKp44-derived pep5 was used as negative control. Note that when we apply to NK92-44-1 pep8 (without target cells), activation of IFNγ secretion is minimal and less/similar to the observed activation when applying the pep5 negative control. (C) ELISA assay of blocking NKp44–proliferating cell nuclear antigen (PCNA) interaction via NKp44-pep8. NKp44-derived pep5 was used as a negative control. No peptide represents the maximal binding capacity of NKp44 to hPCNA. (D) ELISA assay showing the specific recognition of NKp44-pep8 (5 µg/ml) to hPCNA relative to TL1A, APO-E3, HNF4, NKp44-Ig, hNKp46-Ig, hFc. (E) ProteOn array showing the binding of hPCNA at protein concentration range of 0–250 nM to bond NKp44-pep8. 0 nM (X base-line), 15.6 nM (yellow), 31.2 (purple), 62.5 nM (green), 125 nM (blue), and 250 nM (red).

## VTSSKPRTVAWTSRFTIWAA [pep10, NKp44-derived 20mer peptide, amino acids 67–86]
NKp44–PCNA interaction
  inhibition of rhNKp44 binding to PCNA: but not pep10 could block NKp44–PCNA interaction
[1]
  binding to recombinant hPCNA: also bound to PCNA but to a lesser extent as compared with pep8
[2]
  IFNγ secretion / NK92 cell function in presence of peptide: but not pep10 could block NKp44–PCNA interaction and upregulate NK92 cell function
